Measured values from US20170334934A1, “Macrocyclic picolinamides as fungicides” (DOW AGROSCIENCES LLC, priority 2014, published 2017).
Like-named read-outs stand apart in the source and are kept apart here.

Legend:
[1] = tested on: Mycosphaerella graminicola; Anamorph: Zymoseptoria tritici; test: Fungicidal activity: Leaf Blotch of Wheat (SEPTTR), wheat seedlings; format: in vivo; conditions: for pest or weed control at 121.5 g/ha: Low Volume (121.5 g/H)
Method: Example A: Evaluation of Fungicidal Activity: Leaf Blotch of Wheat (Mycosphaerella graminicola; Anamorph: Zymoseptoria tritici; Bayer Code […]) Technical grades of materials were dissolved in acetone, which were then mixed with nine volumes of water containing 110 ppm Triton X-100. The fungicide solutions were applied onto wheat seedlings using an automated booth sprayer to run-off. All sprayed plants were allowed to air dry prior to further handling. All fungicides were evaluated using the aforementioned method for their activity vs. all target diseases, unless stated otherwise. Wheat leaf blotch and brown rust activity were also evaluated using track spray applications, in which case the fungicides were formulated as EC formulations, containing 0.1% Trycol 5941 in the spray solutions. Wheat plants (variety Yuma) were grown from seed in a greenhouse in 50% mineral soil/50% soil-less Metro mix until the first leaf was fully emerged, with 7-10 seedlings per pot. These plants were inoculated with an aqueous spore suspension of Zymoseptoria tritici either prior to or after fungicide treatments. After inoculation the plants were kept in 100% relative humidity (one day in a dark dew chamber followed by two to three days in a lighted dew chamber at 20° C.) to permit spores to germinate and infect the leaf. The plants were then transferred to a greenhouse set at 20° C. for disease to develop. When disease symptoms were fully expressed on the 1st leaves of untreated plants, infection levels were assessed on a scale of 0 to 100 percent disease severity. Percent disease control was calculated using the ratio of disease severity on treated plants relative to untreated plants.

Puccinia triticina = test: Fungicidal activity: Wheat Brown Rust (PUCCRT), wheat seedlings; format: in vivo; conditions: for pest or weed control at 100 µg/mL: High Volume (100 ppm); for pest or weed control at 121.5 g/ha: Low Volume (121.5 g/H)
Method: Technical grades of materials were dissolved in acetone, which were then mixed with nine volumes of water containing 110 ppm Triton X-100. The fungicide solutions were applied onto wheat seedlings using an automated booth sprayer to run-off. All sprayed plants were allowed to air dry prior to further handling. All fungicides were evaluated using the aforementioned method for their activity vs. all target diseases, unless stated otherwise. Wheat leaf blotch and brown rust activity were also evaluated using track spray applications, in which case the fungicides were formulated as EC formulations, containing 0.1% Trycol 5941 in the spray solutions. Wheat plants (variety Yuma) were grown from seed in a greenhouse in 50% mineral soil/50% soil-less Metro mix until the first leaf was fully emerged, with 7-10 seedlings per pot. These plants were inoculated with an aqueous spore suspension of Zymoseptoria tritici either prior to or after fungicide treatments. After inoculation the plants were kept in 100% relative humidity (one day in a dark dew chamber followed by two to three days in a lighted dew chamber at 20° C.) to permit spores to germinate and infect the leaf. The plants were then transferred to a greenhouse set at 20° C. for disease to develop. When disease symptoms were fully expressed on the 1st leaves of untreated plants, infection levels were assessed on a scale of 0 to 100 percent disease severity. Percent disease control was calculated using the ratio of disease severity on treated plants relative to untreated plants. Example B: Evaluation of Fungicidal Activity: Wheat Brown Rust (Puccinia triticina; Synonym: Puccinia recondita f. sp. tritici; Bayer Code PUCCRT) Wheat plants (variety Yuma) were grown from seed in a greenhouse in 50% mineral soil/50% soil-less Metro mix until the first leaf was fully emerged, with 7-10 seedlings per pot. These plants were inoculated with an aqueous spore suspension of Puccinia triticina either prior to or after fungicide treatments. After inoculation the plants were kept in a dark dew room at 22° C. with 100% relative humidity overnight to permit spores to germinate and infect the leaf. The plants were then transferred to a greenhouse set at 24° C. for disease to develop. Fungicide formulation, application and disease assessment followed the procedures as described in the Example A.

[2] = 24 h, High Volume (100 ppm), 1 Day Protectant, wheat, read-out: SEPTTR disease control rating, 1DP
[3] = 72 h, High Volume (100 ppm), 3 Day Curative, wheat, read-out: SEPTTR disease control rating, 3DC
[4] = 24 h, 1 Day Protectant, read-out: PUCCRT disease control rating, 1DP
[5] = 72 h, 3 Day Curative, read-out: PUCCRT disease control rating, 3DC
[6] = 24 h, 1 Day Protectant, wheat, read-out: SEPTTR disease control rating, 1DP
[7] = 72 h, 3 Day Curative, wheat, read-out: SEPTTR disease control rating, 3DC

COc1ccnc(C(=O)N[C@H]2CCO[C@H](Cc3ccccc3)[C@@H](OCC(C)C)[C@H](C)OC2=O)c1O [Compound 51]
< 70%: pest or weed control at 100 µg/mL [1, 3]
> 70%: pest or weed control at 100 µg/mL [1, 2] | pest or weed control at 100 µg/mL (Puccinia triticina; [4]) | pest or weed control at 100 µg/mL (Puccinia triticina; [5])

COc1ccnc(C(=O)N[C@H]2CCO[C@H](Cc3ccc(F)cc3)[C@@H](Oc3ccccc3)[C@H](C)OC2=O)c1O [Compound 52]
> 70%: pest or weed control at 100 µg/mL [1, 2] | pest or weed control at 100 µg/mL [1, 3] | pest or weed control at 100 µg/mL (Puccinia triticina; [4]) | pest or weed control at 100 µg/mL (Puccinia triticina; [5])

COc1ccnc(C(=O)N[C@H]2CCO[C@H](Cc3ccc(F)cc3)[C@@H](OCC(C)C)[C@H](C)OC2=O)c1O [Compound 53]
> 70%: pest or weed control at 100 µg/mL [1, 2] | pest or weed control at 100 µg/mL [1, 3] | pest or weed control at 100 µg/mL (Puccinia triticina; [4]) | pest or weed control at 100 µg/mL (Puccinia triticina; [5])

COc1ccnc(C(=O)N[C@H]2CCO[C@H](Cc3ccc(F)cc3)[C@@H](OC(=O)C(C)C)[C@H](C)OC2=O)c1O [Compound 54]
> 70%: pest or weed control at 100 µg/mL [1, 2] | pest or weed control at 100 µg/mL [1, 3] | pest or weed control at 100 µg/mL (Puccinia triticina; [4]) | pest or weed control at 100 µg/mL (Puccinia triticina; [5])

C=CCO[C@H]1[C@H](C)OC(=O)[C@@H](NC(=O)c2nccc(OC)c2O)CCO[C@@H]1Cc1ccc(F)cc1 [Compound 55, N-((2R,3S,4S,7S)-3-(allyloxy)-2-(4-fluorobenzyl)-4-methyl-6-oxo-1,5-dioxonan-7-yl)-3-hydroxy-4-methoxypicolinamide]
> 70%: pest or weed control at 100 µg/mL [1, 2] | pest or weed control at 100 µg/mL [1, 3] | pest or weed control at 100 µg/mL (Puccinia triticina; [4]) | pest or weed control at 100 µg/mL (Puccinia triticina; [5])

CCCO[C@H]1[C@H](C)OC(=O)[C@@H](NC(=O)c2nccc(OC)c2O)CCO[C@@H]1Cc1ccc(F)cc1 [Compound 56, N-((2R,3S,4S,7S)-2-(4-fluorobenzyl)-4-methyl-6-oxo-3-propoxy-1,5-dioxonan-7-yl)-3-hydroxy-4-methoxypicolinamide]
> 70%: pest or weed control at 100 µg/mL ([1]; 24 h, read-out: SEPTTR disease control rating, 1DP) | pest or weed control at 100 µg/mL ([1]; 72 h, read-out: SEPTTR disease control rating, 3DC) | pest or weed control at 100 µg/mL (Puccinia triticina; [4]) | pest or weed control at 100 µg/mL (Puccinia triticina; [5])

COc1ccnc(C(=O)N[C@H]2CCO[C@H](Cc3ccccc3)[C@@H](Oc3ccccc3)[C@H](C)OC2=O)c1O [Compound 57]
> 70%: pest or weed control at 100 µg/mL [1, 2] | pest or weed control at 100 µg/mL [1, 3] | pest or weed control at 100 µg/mL (Puccinia triticina; [4]) | pest or weed control at 100 µg/mL (Puccinia triticina; [5])

COc1ccnc(C(=O)N[C@H]2CCO[C@H](CC3CCCC3)[C@@H](Oc3ccccc3)[C@H](C)OC2=O)c1O [Compound 58]
> 70%: pest or weed control at 100 µg/mL [1, 2] | pest or weed control at 100 µg/mL [1, 3] | pest or weed control at 100 µg/mL (Puccinia triticina; [4]) | pest or weed control at 100 µg/mL (Puccinia triticina; [5])

COc1ccc(C[C@H]2OCC[C@H](NC(=O)c3nccc(OC)c3O)C(=O)O[C@@H](C)[C@@H]2OCC2CC2)cc1 [Compound 59]
> 70%: pest or weed control at 100 µg/mL [1, 3] | pest or weed control at 100 µg/mL (Puccinia triticina; [4]) | pest or weed control at 100 µg/mL (Puccinia triticina; [5])
< 70%: pest or weed control at 100 µg/mL [1, 2]

COc1ccc(C[C@H]2OCC[C@H](NC(=O)c3nccc(OC)c3O)C(=O)O[C@@H](C)[C@@H]2Oc2ccccc2)cc1 [Compound 60]
> 70%: pest or weed control at 100 µg/mL [1, 2] | pest or weed control at 100 µg/mL [1, 3] | pest or weed control at 100 µg/mL (Puccinia triticina; [4]) | pest or weed control at 100 µg/mL (Puccinia triticina; [5])

C=C(C)CO[C@H]1[C@H](C)OC(=O)[C@@H](NC(=O)c2nccc(OC)c2O)CCO[C@@H]1CC [Compound 61]
< 70%: pest or weed control at 100 µg/mL [1, 2]
> 70%: pest or weed control at 100 µg/mL [1, 3] | pest or weed control at 100 µg/mL (Puccinia triticina; [4]) | pest or weed control at 100 µg/mL (Puccinia triticina; [5])

CC[C@H]1OCC[C@H](NC(=O)c2nccc(OC)c2O)C(=O)O[C@@H](C)[C@@H]1OCC(C)C [Compound 62]
< 70%: pest or weed control at 100 µg/mL [1, 2]
> 70%: pest or weed control at 100 µg/mL [1, 3] | pest or weed control at 100 µg/mL (Puccinia triticina; [4]) | pest or weed control at 100 µg/mL (Puccinia triticina; [5])

CC[C@H]1OCC[C@H](NC(=O)c2nccc(OC)c2O)C(=O)O[C@@H](C)[C@@H]1Oc1ccccc1 [Compound 63]
> 70%: pest or weed control at 100 µg/mL [1, 2] | pest or weed control at 100 µg/mL [1, 3] | pest or weed control at 100 µg/mL (Puccinia triticina; [4]) | pest or weed control at 100 µg/mL (Puccinia triticina; [5])

CC[C@H]1OCC[C@H](NC(=O)c2nccc(OC)c2O)C(=O)O[C@@H](C)[C@@H]1Oc1ccc(F)cc1 [Compound 64]
> 70%: pest or weed control at 100 µg/mL [1, 2] | pest or weed control at 100 µg/mL [1, 3] | pest or weed control at 100 µg/mL (Puccinia triticina; [4]) | pest or weed control at 100 µg/mL (Puccinia triticina; [5])

CC[C@H]1OCC[C@H](NC(=O)c2nccc(OC)c2O)C(=O)O[C@@H](C)[C@@H]1OC(=O)C(C)C [Compound 65]
> 70%: pest or weed control at 100 µg/mL (Puccinia triticina; [4]) | pest or weed control at 100 µg/mL (Puccinia triticina; [5])
< 70%: pest or weed control at 100 µg/mL [1, 2] | pest or weed control at 100 µg/mL [1, 3]

COc1ccnc(C(=O)N[C@H]2CCOC[C@@H](OCc3ccccc3)[C@H](C)OC2=O)c1O [Compound 66]
< 70%: pest or weed control at 100 µg/mL [1, 2] | pest or weed control at 100 µg/mL [1, 3]
> 70%: pest or weed control at 100 µg/mL (Puccinia triticina; [4]) | pest or weed control at 100 µg/mL (Puccinia triticina; [5])

COc1ccnc(C(=O)N[C@H]2CCOC[C@@H](OCC(C)C)[C@H](C)OC2=O)c1O [Compound 67]
> 70%: pest or weed control at 100 µg/mL [1, 2] | pest or weed control at 100 µg/mL [1, 3] | pest or weed control at 100 µg/mL (Puccinia triticina; [4]) | pest or weed control at 100 µg/mL (Puccinia triticina; [5])

COc1ccnc(C(=O)N[C@H]2CCOC[C@@H](OCCCC(F)(F)F)[C@H](C)OC2=O)c1O [Compound 68]
< 70%: pest or weed control at 100 µg/mL [1, 2] | pest or weed control at 100 µg/mL [1, 3]
> 70%: pest or weed control at 100 µg/mL (Puccinia triticina; [4]) | pest or weed control at 100 µg/mL (Puccinia triticina; [5])

COc1ccnc(C(=O)N[C@H]2CCOC[C@@H](Oc3ccccc3)[C@H](C)OC2=O)c1O [Compound 69]
> 70%: pest or weed control at 100 µg/mL [1, 2] | pest or weed control at 100 µg/mL [1, 3] | pest or weed control at 100 µg/mL (Puccinia triticina; [4]) | pest or weed control at 100 µg/mL (Puccinia triticina; [5])

COc1ccnc(C(=O)N[C@H]2CCOC[C@@H](OC(=O)C(C)C)[C@H](C)OC2=O)c1O [Compound 70]
< 70%: pest or weed control at 100 µg/mL [1, 2] | pest or weed control at 100 µg/mL [1, 3] | pest or weed control at 100 µg/mL (Puccinia triticina; [4]) | pest or weed control at 100 µg/mL (Puccinia triticina; [5])

COc1ccnc(C(=O)N[C@H]2CCO[C@H](Cc3ccccc3)[C@@H](OCC(C)C)[C@H](C)OC2=O)c1OC(C)=O [Compound 71]
> 70%: pest or weed control at 121.5 g/ha [1, 6] | pest or weed control at 121.5 g/ha [1, 7] | pest or weed control at 121.5 g/ha (Puccinia triticina; [4]) | pest or weed control at 121.5 g/ha (Puccinia triticina; [5])

COc1ccnc(C(=O)N[C@H]2CCO[C@H](Cc3ccccc3)[C@@H](OCC(C)C)[C@H](C)OC2=O)c1OCOC(C)=O [Compound 72]
> 70%: pest or weed control at 121.5 g/ha [1, 6] | pest or weed control at 121.5 g/ha [1, 7] | pest or weed control at 121.5 g/ha (Puccinia triticina; [4]) | pest or weed control at 121.5 g/ha (Puccinia triticina; [5])

COc1ccnc(C(=O)N[C@H]2CCO[C@H](Cc3ccc(F)cc3)[C@@H](Oc3ccccc3)[C@H](C)OC2=O)c1OCOC(C)=O [Compound 73]
> 70%: pest or weed control at 121.5 g/ha [1, 6] | pest or weed control at 121.5 g/ha [1, 7] | pest or weed control at 121.5 g/ha (Puccinia triticina; [4]) | pest or weed control at 121.5 g/ha (Puccinia triticina; [5])

COc1ccnc(C(=O)N[C@H]2CCO[C@H](Cc3ccc(F)cc3)[C@@H](OC(=O)C(C)C)[C@H](C)OC2=O)c1OCOC(C)=O [Compound 74]
> 70%: pest or weed control at 121.5 g/ha [1, 6] | pest or weed control at 121.5 g/ha [1, 7] | pest or weed control at 121.5 g/ha (Puccinia triticina; [4]) | pest or weed control at 121.5 g/ha (Puccinia triticina; [5])
